Data published in patent US9012466B2, “Substituted tricyclic pyrazolo-pyrimidine compounds” (ArQule, Inc., priority 2013, dated 2015).
pIC50: −log10 of the molar value.

Tests used:
[1] = system: Rec-1; assay: Anti Proliferation Assay (MTS), Rec-1; assay type: cell-based; conditions: Homo sapiens, Rec1, Rec-1 cells, 72 hours treatment
Protocol: (§1) Cell survival was determined by the MTS assay. Briefly, cells were plated in a 96-well plate at 2,000-10,000 cells per well, cultured for 24 hours in complete growth medium, and then treated with various drugs and drug combinations for 72 hours. MTS/PMS was added and incubated for 4 hour, followed by assessment of cell viability using the microplate reader (absorbance at 490 nm). Data were normalized to untreated controls and analyzed with Microsoft Excel.

[2] = target: Full-length inactive BTK (Homo sapiens, UniProt Q06187); assay: BTK Kinase Activity Assay; assay type: biochemical; conditions: AlphaScreen, 25 μM ATP, 30 minute pre-incubation
Protocol: BTK Kinase Activity Assay
After a 30 minute pre-incubation at room temperature, the kinase reaction was initiated by the addition of 5 μl of an activation mixture diluted in assay buffer containing biotinylated PLCγ2 peptide, DOPS/DOPC, PtdIns(3,4,5)P3, and ATP for final concentrations of 100 nM biotinylated PLCγ2, 5.5 μM DOPS, 5.5 μM DOPC, 0.5 μM PtdIns(3,4,5)P3, and 25 μM ATP. The plates were incubated for 60 minutes at room temperature. The reactions were stopped in the dark by the addition of 10 μl stop/detection mixture prepared in assay buffer containing EDTA and AlphaScreen™ Streptavidin Donor and anti-pTYR100 Acceptor beads. The final concentrations were 10 mM EDTA and 500 ng/well of both AlphaScreen™ (Amplified Luminescent Proximity Homogeneous Assay) technology donor and acceptor beads. Assay plates were incubated for 60 minutes at room temperature in the dark, and the plates were read on a Perkin Elmer Envision Multilabel plate reader (excitation wavelength: […], emission wavelength: 570 nm).

[3] = target: T1, Full-length BTKC481S (Homo sapiens, UniProt Q06187, C481S); assay: BTKC481S Kinase Activity Assay; assay type: biochemical; conditions: AlphaScreen, 60 μM ATP; test concentration not given
T1 construct: Full-length BTKC481S was diluted in assay buffer
Protocol: BTKC481S Kinase Activity Assay
Test inhibitors and controls (Staurosporine) were prepared in 10% DMSO at 10-fold the desired final concentration, and added to each well of a reaction plate (Corning 96-well half-area solid white nonbinding surface plate) in a volume of 2.5 μl. Full-length BTKC481S was diluted in assay buffer (50 mM Tris, pH 8.0, 0.02 mg/ml BSA, 10 mM MgCl2, 1 mM EGTA, 10% glycerol, 1 mM DTT, 1 mM β-glycerophosphate, and 1 mM NaF) and added to each well in a volume of 17.5 μl for a final concentration in the 25 μl reaction of 10 nM. After a 30 minute pre-incubation at room temperature, the kinase reaction was initiated by the addition of 5 μl of an activation mixture diluted in assay buffer containing biotinylated PLCγ2 peptide, and ATP for final concentrations of 125 nM biotinylated PLCγ2, and 60 μM ATP. The plates were incubated for 60 minutes at room temperature. The reactions were stopped in the dark by the addition of 10 μl stop/detection mixture prepared in assay buffer containing EDTA, Staurosporine and AlphaScreen™ Streptavidin Donor and anti-pTYR100 Acceptor beads. The final concentrations were 15 mM EDTA, 1 μM Staurosporine and 500 ng/well of both AlphaScreen™ (Amplified Luminescent Proximity Homogeneous Assay) technology donor and acceptor beads. Assay plates were incubated for 60 minutes at room temperature in the dark, and the plates were read on a Perkin Elmer Envision Multilabel plate reader (excitation wavelength: […], emission wavelength: 570 nm).

[4] = system: TMD-8; assay: Anti Proliferation Assay (MTS), TMD-8; assay type: cell-based; conditions: Homo sapiens, TMD8, TMD-8 cells, 72 hours treatment
Protocol: as §1

T1 sequence (Q06187 whole entry C481S): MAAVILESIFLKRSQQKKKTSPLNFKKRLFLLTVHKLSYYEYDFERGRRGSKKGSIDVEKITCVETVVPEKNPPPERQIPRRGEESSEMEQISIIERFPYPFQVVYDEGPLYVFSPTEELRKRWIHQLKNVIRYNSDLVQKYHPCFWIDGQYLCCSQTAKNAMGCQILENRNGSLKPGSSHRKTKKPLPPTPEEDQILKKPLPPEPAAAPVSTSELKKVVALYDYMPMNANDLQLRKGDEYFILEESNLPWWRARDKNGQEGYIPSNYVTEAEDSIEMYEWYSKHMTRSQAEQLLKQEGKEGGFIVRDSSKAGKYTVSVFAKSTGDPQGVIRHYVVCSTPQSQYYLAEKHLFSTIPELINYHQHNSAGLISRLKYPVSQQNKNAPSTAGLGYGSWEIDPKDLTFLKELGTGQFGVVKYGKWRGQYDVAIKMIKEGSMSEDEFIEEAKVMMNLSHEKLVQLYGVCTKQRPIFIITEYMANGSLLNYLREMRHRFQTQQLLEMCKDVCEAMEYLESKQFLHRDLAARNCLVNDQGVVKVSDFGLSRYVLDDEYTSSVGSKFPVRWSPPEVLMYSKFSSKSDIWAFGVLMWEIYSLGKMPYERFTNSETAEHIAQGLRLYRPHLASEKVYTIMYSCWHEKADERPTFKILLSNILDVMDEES
Sequence of Full-length inactive BTK (Q06187 whole entry): as the sequence (Q06187 whole entry C481S) above, with S481C counted along it

SMILES	pIC50 [2]	BTK (C481S) (% inhibition) [3] [%]	pIC50 [1]	pIC50 [4]
CN1CC(CNc2ncc3c4n[nH]cc4c(=O)n(-c4ccccc4F)c3n2)Oc2ccccc21 (stereo not shown) [Compound 229, 5-(2-fluorophenyl)-7-(((4-methyl-3,4-dihydro-2H-benzo[b][1,4]oxazin-2-yl)methyl)amino)-2H-pyrazolo[3′,4′:4,5]pyrido[2,3-d]pyrimidin-4(5H)-one]	7.47	99.2	5.59	5.85
O=c1c2c[nH]nc2c2cnc(NCC3CNc4ccccc4O3)nc2n1-c1ccccc1F (stereo not shown) [Compound 346, 7-[(3,4-dihydro-2H-1,4-benzoxazin-2-ylmethyl)amino]-5-(2-fluorophenyl)-2,5-dihydro-4H-pyrazolo[3′,4′:4,5]pyrido[2,3-d]pyrimidin-4-one]	7.48	85.2	4.49	5.02
CN1C[C@H](CNc2ncc3c4[nH]nc(N)c4c(=O)n(-c4ccccc4)c3n2)Oc2cc(F)ccc21 [Compound 345, 3-amino-7-({[(2S)-7-fluoro-4-methyl-3,4-dihydro-2H-1,4-benzoxazin-2-yl]methyl}amino)-5-phenyl-1,5-dihydro-4H-pyrazolo[3′,4′:4,5]pyrido[2,3-d]pyrimidin-4-one]	8.34	36.1	4.83	5.49
CN(C[C@H]1CN(C)c2ccccc2O1)c1ncc2c3[nH]nc(N)c3c(=O)n(-c3ccccc3F)c2n1 [Compound 342, 3-amino-5-(2-fluorophenyl)-7-(methyl{[(2R)-4-methyl-3,4-dihydro-2H-1,4-benzoxazin-2-yl]methyl}amino)-1,5-dihydro-4H-pyrazolo[3′,4′:4,5]pyrido[2,3-d]pyrimidin-4-one]	7.96	101	5.59	6.15

Further lines, with some results ahead:

pIC50 [2]	BTK (C481S) (% inhibition) [3] [%]	SMILES	pIC50 [1]	pIC50 [4]
6.62	92.8	O=c1c2c[nH]nc2c2cnc(NCC3COc4ccccc4O3)nc2n1-c1ccccc1 (stereo not shown) [Compound 14, 7-(((2,3-dihydrobenzo[b][1,4]dioxin-2-yl)methyl)amino)-5-phenyl-2H-pyrazolo[3′,′:4,5]pyrido[2,3-d]pyrimidin-4(5H)-one]	5.37	5.40
7.85	100	CN1C[C@H](CNc2ncc3c4n[nH]cc4c(=O)n(-c4ccccc4F)c3n2)Oc2ccccc21 [Compound 343, 5-(2-fluorophenyl)-7-({[(2S)-4-methyl-3,4-dihydro-2H-1,4-benzoxazin-2-yl]methyl}amino)-2,5-dihydro-4H-pyrazolo[3′,4′:4,5]pyrido[2,3-d]pyrimidin-4-one]	5.85	6.22
7.48	59	Cc1c2c(=O)[nH]nc-2c2cnc(NC[C@H]3COc4ccccc4O3)nc2n1-c1ccccc1 [Compound 359, 7-{[(2S)-2,3-dihydro-1,4-benzodioxin-2-ylmethyl]amino}-4-methyl-5-phenyl-2,5-dihydro-3H-pyrazolo[3′,′:4,5]pyrido[2,3-d]pyrimidin-3-one]	4.63	4.57
6.48	53.7	O=c1[nH]nc2c3cnc(NCC4COc5ccccc5O4)nc3n(-c3ccccc3)cc1-2 (stereo not shown) [Compound 356, 7-(((2,3-dihydrobenzo[b][1,4]dioxin-2-yl)methyl)amino)-5-phenyl-2H-pyrazolo[3′,′:4,5]pyrido[2,3-d]pyrimidin-3(5H)-one]	4.73	4.64
7.42	98.2	CN(CC1COc2ccccc2O1)c1ncc2c3[nH]nc(N)c3c(=O)n(-c3ccccc3)c2n1 (stereo not shown) [Compound 223, 3-amino-7-[(2,3-dihydro-1,4-benzodioxin-2-ylmethyl)(methyl)amino]-5-phenyl-1,5-dihydro-4H-pyrazolo[3′,4′:4,5]pyrido[2,3-d]pyrimidin-4-one]	5.21	4.95
6.85	73.3	Cc1[nH]nc2c1c(=O)n(-c1ccccc1)c1nc(NC[C@H]3COc4ccccc4O3)ncc21 [Compound 210, 7-{[(2S)-2,3-dihydro-1,4-benzodioxin-2-ylmethyl]amino}-3-methyl-5-phenyl-2,5-dihydro-4H-pyrazolo[3′,′:4,5]pyrido[2,3-d]pyrimidin-4-one]	5.17	5.15
